The record followed here is ChEMBL document CHEMBL5532662, “Exploiting the Carboxylate-Binding Pocket of β-Lactamase Enzymes Using a Focused DNA-Encoded Chemical Library” (J Med Chem, 2024).

Data set [1] concerns Escherichia coli. Nature of the data set: Synergistic antimicrobial activity against Escherichia coli expressing […] assessed as imipenem MIC at 32 ug/ml incubated for 18 hrs by microdilution method (reference value: 8 ug/ml). Conditions: dose 32 µg/ml; call rule not given here. The class given is functional. In general terms: In broth dilution the organism is exposed to a series of concentrations in liquid medium.

The test system of data set [2] is Escherichia coli. Nature of the data set: Synergistic antimicrobial activity against Escherichia coli expressing […] assessed as imipenem MIC at 16 ug/ml incubated for 18 hrs by microdilution method (reference value: 8 ug/ml). Format: functional. Conditions: dose 16 µg/ml.
Data set [3] has as its target T1, Metallo-beta-lactamase type 2 (Bacteria, UniProt C7C422). The data set can be described thus: biochemical.
The subject of data set [4] is Escherichia coli. Nature of the data set: Synergistic antimicrobial activity against Escherichia coli expressing […] assessed as imipenem MIC at 64 ug/ml incubated for 18 hrs by microdilution method (reference value: 8 ug/ml). Format: functional. Conditions: dose 64 µg/ml.
In data set [5] the test system is Escherichia coli. Nature of the data set: Synergistic antimicrobial activity against Escherichia coli expressing […] assessed as imipenem MIC at 128 ug/ml incubated for 18 hrs by microdilution method (reference value: 8 ug/ml). Conditions: dose 128 µg/ml. The class given is functional.
Data set [6] can be described thus: Binding affinity to his-tagged OXA-48 (unknown origin) expressed in Escherichia coli BL21 (DE3) cells assessed as inhibition constant using nitrocefin as substrate by Morrison equation based analysis. Also noted: species or system Bacteria.
The nature of data set [7]: Drug accumulation in Escherichia coli assessed per 10^12 CFU incubated for 10 mins under shaking condition by LC-MS/MS analysis. Format: ADME.
For data set [8], the system named is Escherichia coli. Nature of the data set: Synergistic antimicrobial activity against Escherichia coli expressing […] assessed as imipenem MIC at 8 ug/ml incubated for 18 hrs by microdilution method (reference value: 8 ug/ml). Format: functional. Conditions: dose 8 µg/ml.
Data set [9] has as its target T1, Metallo-beta-lactamase type 2. Nature of the data set: biochemical. The source holds these as a separate data set.

T1 sequence (C7C422 whole entry): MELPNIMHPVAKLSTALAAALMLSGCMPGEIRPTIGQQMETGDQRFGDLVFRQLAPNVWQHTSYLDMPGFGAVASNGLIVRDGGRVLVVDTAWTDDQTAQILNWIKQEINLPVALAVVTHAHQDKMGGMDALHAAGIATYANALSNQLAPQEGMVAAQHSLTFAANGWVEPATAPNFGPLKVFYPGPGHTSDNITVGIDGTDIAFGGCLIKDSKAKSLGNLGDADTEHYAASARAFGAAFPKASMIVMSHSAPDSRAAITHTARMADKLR

As a reminder, the MIC is the lowest concentration found to suppress growth. What is called Ki is the equilibrium dissociation constant of an inhibitor or competing ligand from its target. For the compound `NCc1cccc(N2Cc3ccc(-c4ccc(C(=O)O)c(O)c4)cc3C2)c1`, the MIC in the data set with Escherichia coli [1], in the data set with Escherichia coli [2], in the data set with Escherichia coli [4] and in the data set with Escherichia coli [5] was 8 µg/mL in each case. The Ki in data set [3] is 50 µM.

For `Nc1cccc(CCCNCc2ccccc2-c2cccc(C(=O)O)c2)c1`, the inhibition constant Ki in data set [6] amounted to 130 µM.

For `CNCc1cccc(NCc2cccc(-c3ccc(C(=O)O)c(O)c3)c2)c1`, the MIC in the data set with Escherichia coli [1], in the data set on Escherichia coli [2], with Escherichia coli [4] and in the data set on Escherichia coli [5] was 4 µg/mL throughout.

Regarding `COc1cc(-c2cc(O)cc(C(=O)O)c2)ccc1C(=O)O`, the Ki in data set [6] is 0.6 µM.

As for `NCc1cccc(NCc2cncc(-c3ccc(C(=O)O)c(O)c3)c2)c1`, the MIC in the data set with Escherichia coli [1] is 8 µg/mL; in the data set with Escherichia coli [2] it was 8 µg/mL; in the data set with Escherichia coli [4], 8 µg/mL; in the data set on Escherichia coli [5], 4 µg/mL.

Compound `NCc1cccc(NCc2cc(C(=O)O)cc(-c3ccc(C(=O)O)c(O)c3)c2)c1` yielded a Ki in [3] of 140 µM.

For the compound `CNCc1cccc(NCc2ccc(-c3ccc(C(=O)O)c(O)c3)o2)c1`, the Drug uptake result in [7] was “Not Active”. Further, the MIC in the data set with Escherichia coli [1], in the data set with Escherichia coli [2], in the data set on Escherichia coli [4] and in the data set on Escherichia coli [5] was 4 µg/mL each time.

In turn, `CC(=O)NCc1cccc(NCc2cccc(-c3ccc(C(=O)O)c(O)c3)c2)c1` displayed a Ki in data set [3] above 100 µM.

`Cc1cccc(NCc2cccc(-c3ccc(C(=O)O)c(O)c3)c2)c1` had a Ki in data set [3] above 100 µM.

In the case of `NCc1cccc(NCc2ccc(-c3cccc(C(=O)O)c3O)o2)c1`, the minimum inhibitory concentration (MIC) in the data set on Escherichia coli [1] stood at 4 µg/mL; in the data set with Escherichia coli [2], 8 µg/mL; with Escherichia coli [4], 4 µg/mL; with Escherichia coli [5], 4 µg/mL.

As for `NCc1cccc(NCc2cccc(-c3ccc(C(=O)O)c(O)c3)n2)c1`, the Drug uptake entry in data set [7] was “Active”. For the same compound, the minimum inhibitory concentration (MIC) was 4 µg/mL in the data set on Escherichia coli [1], 4 µg/mL in the data set on Escherichia coli [2], 4 µg/mL in the data set on Escherichia coli [4] and 2 µg/mL with Escherichia coli [5].

For the compound `NCc1cccc(NCc2ccc(-c3ccc(C(=O)O)c(O)c3)s2)c1`, the MIC with Escherichia coli [1], with Escherichia coli [2], in the data set with Escherichia coli [4] and in the data set with Escherichia coli [5] was 4 µg/mL throughout. In data set [3], this compound registered a Ki of 1.5 µM.

In the case of `NCc1cccc(NCc2ccnc(-c3ccc(C(=O)O)c(O)c3)c2)c1`, the minimal inhibitory concentration (MIC) in the data set with Escherichia coli [1] was found to be 8 µg/mL; in the data set on Escherichia coli [2], 8 µg/mL; with Escherichia coli [4], 4 µg/mL; in the data set on Escherichia coli [5] it was 4 µg/mL.

Take `NCc1cccc(NCc2cc(-c3ccc(C(=O)O)c(O)c3)ccn2)c1`: the MIC in the data set with Escherichia coli [1] was determined as 8 µg/mL; in the data set on Escherichia coli [2], 8 µg/mL; in the data set on Escherichia coli [4], 4 µg/mL; with Escherichia coli [5] it was 4 µg/mL.

For `NCc1cc(O)cc(NCc2cccc(-c3ccc(C(=O)O)c(O)c3)c2)c1`, the MIC in the data set on Escherichia coli [1], in the data set with Escherichia coli [2], in the data set on Escherichia coli [4] and in the data set with Escherichia coli [5] was 4 µg/mL in each case.

Regarding `NCc1cccc(NCc2ccc(-c3ccc(C(=O)O)c(O)c3)o2)c1`, the minimal inhibitory concentration (MIC) in the data set with Escherichia coli [1], in the data set on Escherichia coli [2], with Escherichia coli [4] and in the data set with Escherichia coli [5] was 4 µg/mL in each case.

In the case of `CNCc1cccc(NCc2ccc(-c3cccc(C(=O)O)c3O)o2)c1`, the MIC with Escherichia coli [1] amounted to 8 µg/mL; in the data set on Escherichia coli [2] it was 8 µg/mL; in the data set with Escherichia coli [4], 8 µg/mL; in the data set on Escherichia coli [5], 4 µg/mL.

Regarding `CN(C)C(=O)C1CCN(c2ccc(CNCc3ccccc3-c3cccc(C(=O)O)c3)cc2C#N)CC1`, the Ki in [6] amounted to 8 µM.

As for `NCc1cccc(NC(=O)c2cccc(-c3ccc(C(=O)O)c(O)c3)c2)c1`, the MIC in the data set with Escherichia coli [1], in the data set with Escherichia coli [2], in the data set on Escherichia coli [4] and with Escherichia coli [5] was 8 µg/mL in each case. In data set [3], this compound had a Ki of 30 µM.

On to `Cc1cc(CNc2cccc(CN)c2)cc(-c2ccc(C(=O)O)c(O)c2)c1`, for which the MIC in the data set with Escherichia coli [1], with Escherichia coli [2] and with Escherichia coli [8] was 4 µg/mL in each case. In data set [3], this compound showed a Ki of 0.5 µM.

`CNCc1cccc(NCc2ccc(-c3ccc(C(=O)O)cc3)o2)c1`: the Ki in data set [3] is 9 µM.

In the case of `CNC(=O)CCc1ccc(CNCc2cccc(NCc3ccc(-c4ccc(C(=O)O)c(O)c4)o3)c2)cc1`, the MIC with Escherichia coli [1], in the data set on Escherichia coli [2], in the data set with Escherichia coli [4] and in the data set with Escherichia coli [5] was 8 µg/mL in each case.

On to `NCc1cccc(NCc2cc(O)cc(-c3ccc(C(=O)O)c(O)c3)c2)c1`, for which the MIC in the data set with Escherichia coli [1], in the data set on Escherichia coli [2], with Escherichia coli [4] and in the data set on Escherichia coli [5] was 4 µg/mL in each case.

For `NCc1cccc(NCc2cccc(-c3ccc(C(=O)O)c(O)c3)c2)c1`, the Drug uptake entry in data set [7] was “Active”. Also, the minimal inhibitory concentration (MIC) in the data set with Escherichia coli [1], in the data set with Escherichia coli [2], in the data set on Escherichia coli [8] and with Escherichia coli [4] was 4 µg/mL in each case. The Ki in data set [3] stood at 0.6 µM.

In data set [9], `CNCc1ccc(-c2ccc(C(=O)O)c(O)c2)o1` yielded a Ki of 500 µM.
